biological target: T1, human PAH with the R408W mutation (Homo sapiens, UniProt P00439, R408W); experiment: Cell Based Phenylalanine Flux Assay; set-up: scale not given here; conditions: A375 cells expressing human R408W PAH; 24 hrs compound incubation; 13C-Tyrosine by LC-MS; average where tested multiple times; read-out: AC50
T1 construct: expressed in transfected cells
T1 sequence (P00439 1-452 R408W): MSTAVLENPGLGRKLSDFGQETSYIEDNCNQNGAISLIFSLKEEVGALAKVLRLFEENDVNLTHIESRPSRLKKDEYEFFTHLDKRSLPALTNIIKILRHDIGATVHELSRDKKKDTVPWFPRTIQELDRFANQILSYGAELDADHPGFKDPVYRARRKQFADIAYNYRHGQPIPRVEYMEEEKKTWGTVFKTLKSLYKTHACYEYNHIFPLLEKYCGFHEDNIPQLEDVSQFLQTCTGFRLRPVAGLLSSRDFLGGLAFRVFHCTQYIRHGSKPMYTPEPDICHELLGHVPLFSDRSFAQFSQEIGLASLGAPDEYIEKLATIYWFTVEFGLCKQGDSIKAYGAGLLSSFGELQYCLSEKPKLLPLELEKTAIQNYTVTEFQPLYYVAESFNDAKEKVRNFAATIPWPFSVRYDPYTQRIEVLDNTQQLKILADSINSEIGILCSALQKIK

Compared with `Cn1cc(-c2nnc(C(=O)N3CCc4[nH]cnc4[C@@H]3c3nc4ccccc4s3)o2)cn1` [Example 1461, (R)-(4-(benzo[d]thiazol-2-yl)-6,7-dihydro-1H-imidazo[4,5-c]pyridin-5(4H)-yl)(5-(1-methyl-1H-pyrazol-4-yl)-1,3,4-oxadiazol-2-yl)methanone], `Cn1ncc(Cl)c1C(=O)N1CCc2[nH]cnc2[C@H]1c1nc2c(F)cccc2s1` [Example 1733] is lower in AC50: 1000 to 5000 nM for the first, 500 to 1000 nM for the second.

First: N#Cc1ccn2ncc(C(=O)N3CCc4[nH]cnc4[C@H]3c3nc4ccc(F)cc4s3)c2c1 [Example 1155, (S)-3-(4-(6-fluorobenzo[d]thiazol-2-yl)-4,5,6,7-tetrahydro-1H-imidazo[4,5-c]pyridine-5-carbonyl)pyrazolo[1,5-a]pyridine-5-carbonitrile]
Second: ((4R,7R)-4-(benzo[d]thiazol-2-yl)-7-methyl-6,7-dihydro-1H-imidazo[4,5- [Example 1587]
The AC50 of the first is lower: 500 to 1000 nM for the first, 1000 to 5000 nM for the second.

First: O=C(c1nccs1)N1CCc2[nH]cnc2[C@@H]1c1nc2c(Cl)cccc2s1 [Example 1202, (R)-(4-(4-chlorobenzo[d]thiazol-2-yl)-6,7-dihydro-1H-imidazo[4,5-c]pyridin-5(4H)-yl)(thiazol-2-yl)methanone]
Second: Cc1nc(-c2cnn(CC(F)(F)F)c2)oc1C(=O)N1CCc2[nH]cnc2[C@H]1c1nc2c(F)cccc2s1 [Example 1506, (S)-(4-(4-fluorobenzo[d]thiazol-2-yl)-6,7-dihydro-1H-imidazo[4,5-c]pyridin-5(4H)-yl)(4-methyl-2-(1-(2,2,2-trifluoroethyl)-1H-pyrazol-4-yl)oxazol-5-yl)methanone]
The AC50 of the first is higher: 1000 to 5000 nM for the first, less than 500 nM for the second.

First: Cc1cccc2sc([C@@H]3c4nc[nH]c4CCN3C(=O)c3cnco3)nc12 [Example 2013, (S)-(4-(4-methylbenzo[d]thiazol-2-yl)-6,7-dihydro-1H-imidazo[4,5-c]pyridin-5(4H)-yl)(oxazol-5-yl)methanone]
Second: Cc1c(-c2ncc(C(=O)N3CCc4[nH]cnc4[C@@H]3c3nc4ccccc4s3)s2)cnn1C [Example 1360, (R)-(4-(benzo[d]thiazol-2-yl)-6,7-dihydro-1H-imidazo[4,5-c]pyridin-5(4H)-yl)(2-(1,5-dimethyl-1H-pyrazol-4-yl)thiazol-5-yl)methanone]
The AC50 of the first is lower: 500 to 1000 nM for the first, 1000 to 5000 nM for the second.

`O=C(c1oc(N2CCOCC2)nc1C(F)(F)F)N1CCc2[nH]cnc2[C@H]1c1nc2ccccc2s1` [Example 2165] and `Cn1cc(-c2nnc(C(=O)N3CCc4[nH]cnc4[C@H]3c3nc4ccccc4s3)o2)c(C(F)(F)F)n1` [Example 1883] cannot be ordered by AC50: less than 500 nM for the first, less than 500 nM for the second.

`Cc1cnc(CCC(=O)N2CCc3[nH]cnc3[C@@H]2c2nc3ccccc3s2)s1` [Example 1032, (R)-1-(4-(benzo[d]thiazol-2-yl)-6,7-dihydro-1H-imidazo[4,5-c]pyridin-5(4H)-yl)-3-(5-methylthiazol-2-yl)propan-1-one] was tested, and the AC50 was greater than 5000 nM.

same assay, conditions: A375 cells expressing human R408W PAH; 24 hrs with compound; 13C-Tyrosine by LC-MS; average where tested multiple times

For `O=C(c1c(C(F)(F)F)nn2ccccc12)N1CCc2[nH]cnc2[C@H]1c1nc2ccccc2s1` (single isomer, unassigned), the AC50 was “E, E”.

same assay, conditions: A375 cells expressing human R408W PAH; 24 hrs with compound; 13C-Tyrosine by LC-MS; average where tested multiple times; read-out: AC50

`O=C(c1nnc(CCNC2CC2)o1)N1CCc2[nH]cnc2C1c1nc2ccccc2s1` (stereo not shown) and `O=C(c1ccon1)N1CCc2[nH]cnc2C1c1nc2ccccc2s1` (stereo not shown) fall in the same range of AC50: 1000 to 5000 nM for the first, 1000 to 5000 nM for the second.

`O=C(C1CN(CC(F)(F)F)C1)N1CCc2[nH]cnc2C1c1nc2c(F)cccc2s1` (stereo not shown) and `CC(=O)Cn1ncc(C(=O)N2CCc3[nH]cnc3C2c2nc3c(F)cccc3s2)c1Cl` (stereo not shown) fall in the same range of AC50: 1000 to 5000 nM for the first, 1000 to 5000 nM for the second.

`O=C(c1cnn2cc(CCc3ccccc3)ccc12)N1CCc2[nH]cnc2C1c1nc2ccccc2s1` (stereo not shown) and `c1ccc2oc(N3CCc4[nH]cnc4C3c3nc4ccccc4s3)nc2c1` (stereo not shown) cannot be ordered by AC50: greater than 5000 nM for the first, greater than 5000 nM for the second.

Compared with `CC(C)(O)c1nc(C(=O)N2CCc3[nH]cnc3C2c2nc3ccccc3s2)no1` (stereo not shown), `O=C(c1nncs1)N1CCc2[nH]cnc2C1c1nc2ccc(F)cc2s1` (stereo not shown) is higher in AC50: 1000 to 5000 nM for the first, greater than 5000 nM for the second.

`O=C(c1nccs1)N1CCc2[nH]cnc2[C@@H]1c1nc2ccc(Cl)cc2[nH]1` (single isomer, unassigned) and `O=C(Cc1nncs1)N1CCc2[nH]cnc2C1c1nc2ccc(F)cc2s1` (stereo not shown) cannot be ordered by AC50: greater than 5000 nM for the first, greater than 5000 nM for the second.
